Data: patent US8618170B2, “Oral formulations of bis(thiohydrazide amides)” (Synta Pharmaceuticals Corp., priority 2007, dated 2013)
Blank lines part the entries; values can stand above or below the compound they belong to.

Experiments:
[1] = Pharmacokinetics after IV or oral administration in rat; type: in vivo, SD rat; details: for AUC(0-inf) / Cmax / Tmax / half-life / bioavailability: male, Sprague-Dawley, plasma
Source text: (§1) The pharmacokinetics of compounds of the invention were compared in mouse, rat and dog by either intravenous or oral administration in various formulations including drug powder in capsules or in combination with generally recognized as safe (GRAS) excipients. After administration in animals, blood samples were collected at the appropriate time points and plasma was obtained for bioanalysis. Compounds were extracted by protein precipitation and analyzed by LC-UV or LC-MS/MS. PK analysis was performed by noncompartmental analysis using WinNonlin. Oral bioavailability (% F) was calculated based on AUC of Compound 1.
(§2) Blood was collected into heparinized tubes that contained dithioreitol (DTT; ˜2 mg/mL) at each time point. After centrifugation plasma was transferred to a new tube that contained DMSO (Plasma:DMSO ration 2:1 for rat/mouse, 9:1 for dog).
(§3) The pharmacokinetic parameters for compounds of the invention were determined from the plasma concentration data using the Noncompartmental Analysis module in WinNonlin, version 5.0 (Pharsight Corporation).

[2] = Pharmacokinetics after IV or oral administration in dog; type: in vivo; details: Beagle dog M; for AUC(0-inf) / Cmax / Tmax / half-life / bioavailability: male, plasma
Source text: as §1, §2, §3

Aqueous solubility = type: physicochemical; details: water
[3] = Pharmacokinetics after IV or oral administration in mouse; type: in vivo; details: female, plasma, CD-1 mouse F
Source text: as §1, §2, §3

[4] = rat, po, 50 mg/kg, SD rat M, capsule (powder), 50 mg/kg as Compound 1 (free acid)
[5] = beagle, dog, po, 50 mg/kg, capsule (powder), 50 mg/kg as Compound 1 (free acid)
[6] = rat, iv, 25 mg/kg, SD rat M, IV bolus, Saline
[7] = rat, po, 50 mg/kg, SD rat M, Saline
[8] = IV bolus, EES (sol'n), 10 mg/kg
[9] = PO, TPGS/PEG400 (sol'n), 100 mg/kg
[10] = rat, iv, 25 mg/kg, SD rat M, IV bolus, EES (sol'n)
[11] = rat, iv, 50 mg/kg, SD rat M, IV bolus, Phospholipid
[12] = rat, iv, 80 mg/kg, SD rat M, IV bolus, HP-β-CD/saline
[13] = rat, iv, 80 mg/kg, SD rat M, IV bolus, Lyophilized HP-β-CD/saline
[14] = rat, other: PI, 80 mg/kg, SD rat M, route PI, Lyophilized HP-β-CD/saline, 80 mg/kg
[15] = rat, po, 50 mg/kg, SD rat M, 0.5% MC (suspension)
[16] = rat, po, 50 mg/kg, SD rat M, Phospholipid
[17] = rat, po, 50 mg/kg, SD rat M, TPGS/PEG400 (sol'n)
[18] = rat, po, 50 mg/kg, SD rat M, nanoparticles (colloidal dispersion)
[19] = rat, po, 80 mg/kg, SD rat M, HP-β-CD/saline
[20] = rat, PO, nanoparticles (colloidal dispersion) vs 0.5% methylcellulose suspension
[21] = beagle, dog, iv, 10 mg/kg, 1 h IV infusion, EES (sol'n)
[22] = beagle, dog, po, 50 mg/kg, TPGS/PEG400 (sol'n)
[23] = beagle, dog, po, 50 mg/kg, nanoparticles (colloidal dispersion)
[24] = PO, capsule (powder), 50 mg/kg as Compound 1 (free acid)

% F ([1]; SD rat M, PO, capsule (powder), 50 mg/kg as Compound 1 (free acid), reference Compound 1 IV bolus, based on AUC of Compound 1, 50 mg/kg): 7.5%
AUC(0-inf) [1, 4]: 1410 ng·h/mL
Cmax [1, 4]: 640 ng/mL
Tmax [1, 4]: 36 min
half-life [1, 4]: 234 min
bioavailability ([1]; rat, po, 50 mg/kg, SD rat M, capsule (powder), 50 mg/kg as Compound 1 (free acid), reference Compound 1 IV bolus, based on AUC of Compound 1): 5.7%
% F ([2]; PO, capsule (powder), 50 mg/kg as Compound 1 (free acid), reference Compound 1 IV infusion, based on AUC of Compound 1, 50 mg/kg): 80.2%
AUC(0-inf) [2, 5]: 103000 ng·h/mL
Cmax [2, 5]: 40400 ng/mL
Tmax [2, 5]: 48 min
half-life [2, 5]: 126 min
solubility (Aqueous solubility): ~50 mg/mL
Compound: CN(/N=C(\[O-])C/C([O-])=N/N(C)C(=S)c1ccccc1)C(=S)c1ccccc1.[Na+].[Na+] [Compound 19]

Compound: CN(NC(=O)CC(=O)NN(C)C(=S)c1ccccc1)C(=S)c1ccccc1 [Compound 22]
bioavailability ([1]; SD rat M, PO, Saline, 50 mg/kg): 10.5%
AUC(0-inf) [1, 6]: 11600 ng·h/mL
Cmax [1, 6]: 39100 ng/mL
half-life [1, 6]: 222 min
AUC(0-inf) [1, 7]: 4760 ng·h/mL
Cmax [1, 7]: 2400 ng/mL
Tmax [1, 7]: 37.8 min
half-life [1, 7]: 150 min

Compound: CN(NC(=O)CC(=O)NN(C)C(=S)c1ccccc1)C(=S)c1ccccc1 [Compound 1]
AUC(0-inf) [3, 8]: 3950 ng·h/mL
Cmax [3, 8]: 6500 ng/mL
Tmax [3, 8]: 4.98 min
half-life [3, 8]: 54 min
AUC(0-inf) [3, 9]: 8640 ng·h/mL
Cmax [3, 9]: 12400 ng/mL
Tmax [3, 9]: 15 min
half-life [3, 9]: 60 min
bioavailability ([3]; PO, TPGS/PEG400 (sol'n), 100 mg/kg, reference Compound 1 IV bolus): 21.9%
AUC(0-inf) [1, 10]: 9270 ng·h/mL
Cmax [1, 10]: 29000 ng/mL
Tmax [1, 10]: 4.98 min
half-life [1, 10]: 102 min
AUC(0-inf) [1, 11]: 29700 ng·h/mL
Cmax [1, 11]: 95300 ng/mL
Tmax [1, 11]: 4.98 min
half-life [1, 11]: 54 min
AUC(0-inf) [1, 12]: 23700 ng·h/mL
Cmax [1, 12]: 58800 ng/mL
Tmax [1, 12]: 4.98 min
half-life [1, 12]: 48 min
AUC(0-inf) [1, 13]: 25700 ng·h/mL
Cmax [1, 13]: 63800 ng/mL
Tmax [1, 13]: 4.98 min
half-life [1, 13]: 24 min
AUC(0-inf) [1, 14]: 5190 ng·h/mL
Cmax [1, 14]: 2550 ng/mL
Tmax [1, 14]: 15 min
bioavailability [1, 14]: 21.3%
half-life [1, 14]: 138 min
AUC(0-inf) [1, 15]: 1220 ng·h/mL
Cmax [1, 15]: 280 ng/mL
Tmax [1, 15]: 30 min
half-life [1, 15]: 192 min
bioavailability ([1]; rat, po, 50 mg/kg, SD rat M, 0.5% MC (suspension), reference Compound 1 IV bolus): 6.6%
AUC(0-inf) [1, 16]: 3790 ng·h/mL
Cmax [1, 16]: 2050 ng/mL
Tmax [1, 16]: 15 to 30 min
bioavailability [1, 16]: 8.8%
half-life [1, 16]: 54 min
AUC(0-inf) [1, 17]: 2770 ng·h/mL
Cmax [1, 17]: 1410 ng/mL
Tmax [1, 17]: 18 min
half-life [1, 17]: 126 min
bioavailability ([1]; rat, po, 50 mg/kg, SD rat M, TPGS/PEG400 (sol'n), reference Compound 1 IV bolus): 14.9%
AUC(0-inf) [1, 18]: 2370 ng·h/mL
Cmax [1, 18]: 1070 ng/mL
Tmax [1, 18]: 18 min
half-life [1, 18]: 186 min
bioavailability ([1]; rat, po, 50 mg/kg, SD rat M, nanoparticles (colloidal dispersion), reference Compound 1 IV bolus): 12.8%
AUC(0-inf) [1, 19]: 4330 ng·h/mL
Cmax [1, 19]: 2210 ng/mL
Tmax [1, 19]: 15 to 30 min
bioavailability [1, 19]: 17.5%
half-life [1, 19]: 72 min
AUC after nanoparticles compared with the suspension [1, 20]: higher
Cmax after nanoparticles compared with the suspension [1, 20]: higher
AUC(0-inf) [2, 21]: 25800 ng·h/mL
Cmax [2, 21]: 11600 ng/mL
Tmax [2, 21]: 60 min
half-life [2, 21]: 72 min
AUC(0-inf) [2, 22]: 87500 ng·h/mL
Cmax [2, 22]: 38100 ng/mL
Tmax [2, 22]: 24 min
half-life [2, 22]: 132 min
bioavailability ([2]; beagle, dog, po, 50 mg/kg, TPGS/PEG400 (sol'n), reference Compound 1 IV infusion): 68%
AUC(0-inf) [2, 5]: 6520 ng·h/mL
Cmax [2, 5]: 1330 ng/mL
Tmax [2, 5]: 120 min
half-life [2, 5]: 150 min
bioavailability ([2]; beagle, dog, po, 50 mg/kg, capsule (powder), 50 mg/kg as Compound 1 (free acid), reference Compound 1 IV infusion, based on AUC of Compound 1): < 5%
AUC(0-inf) [2, 23]: 57500 ng·h/mL
Cmax [2, 23]: 16800 ng/mL
Tmax [2, 23]: 48 min
half-life [2, 23]: 288 min
bioavailability ([2]; beagle, dog, po, 50 mg/kg, nanoparticles (colloidal dispersion), reference Compound 1 IV infusion): 44.6%
solubility (Aqueous solubility): < 0.1 mg/mL

Compound: CN(NC(=O)CC(=O)NN(C)C(=S)c1ccccc1)C(=S)c1ccccc1 [Compound 26]
AUC(0-inf) [1, 4]: 1080 ng·h/mL
Cmax [1, 4]: 250 ng/mL
Tmax [1, 4]: 54 min
half-life [1, 4]: 222 min
AUC(0-inf) [2, 24]: 45600 ng·h/mL
Cmax [2, 24]: 19700 ng/mL
Tmax [2, 24]: 60 min
half-life [2, 24]: 180 min
